In patent publication US5227372A, “Method for retaining ophthalmological agents in ocular tissues” (Children's Medical Center Corporation, priority 1990, dated 1993):
Values belong to the compound of their own block, whether it stands above or below them.

What was measured:
[1] = rabbit, in vivo
Procedure: A polyethylene ring was glued to the cornea in anesthesized rabbits. Saline containing 1 mg/ml of [S^35 ]-β-cyclodextrin tetradecasulfate was added to each well for up to 120 minutes, after which the wells were removed and the corneas vigorously rinsed with saline. The anterior chamber fluid (ACF) was then aspirated. The corneas were then exised and digested in collegenase and the corneal supernatunt counted.

[2] = rabbit, in vivo; remark: listed apart in the source
[3] = system: fibroblast growth factor (FGF); settings: sulfated cyclodextrin column; Shing et al.; cited from earlier work
[4] = polymeric film; cited from earlier work
[5] = polyacrylamide and copolymer of acrylamide, N-vinylpyrrolidone and ethyl acrylate matrix; cited from earlier work
[6] = intravenous injection; fluorescein alone; cited from earlier work
[7] = Fluorescence of Descemet's membrane in histological sections of corneas after application to the cornea (Example 4); format: in vivo, rabbit; settings: fluorescein alone
[8] = Fluorescence of neovascularized corneal vessels after injection into the carotid artery (Example 4); format: in vivo, rabbit; settings: injected into the carotid artery; fluorescein alone
Procedure: The water soluble complex described in Example 3 was injected into the carotid artery of rabbits who had neovascularization in the cornea induced by a pellet of endotoxin implanted one week earlier. After a single injection, the new vessels in the cornea were still flourescing green 3 hours later.
Similarly, when the cyclodextrin-fluorscein complex, dissolved in an aqueous solution of methylcellulose (0.45%), was applied to the rabbit cornea, Descemet's membrane in the cornea also glowed green more than 3 hours later when histological sections of the corneas were examined.

time after removal of wells up to which label is detected in the ACF and in the corneas [1]: up to three
time course of penetration in both the corneas and ACF [1]: increased bearly with time
Compound: β-cyclodextrin tetradecasulfate
concentration in the aqueous humor relative to cornea [2]: parallels that in the cornea, but at lower levels
time course in the cornea [2]: rapid rise in the cornea of labelled β-cyclodextrin tetradecasulfate and then a gradual fall-off
affinity for FGF [3]: high affinity

Compound: CC[C@@H]1C(=O)OC[C@@H]1Cc1cncn1C [pilocarpine]
increase in ocular bioavailability of pilocarpine over aqueous solution [4]: two
increase in ocular bioavailability of pilocarpine [5]: three

presence in Descemet's membrane [7]: not found in Descemet's membrane
Compound: O=C1OC2(c3ccc(O)cc3Oc3cc(O)ccc32)c2ccccc21 [fluorescein]
time to clearance from the blood vessels [6]: less than one
disappearance from the corneal vessels [8]: disappeared from the corneal vessels within a few minutes
